According to patent US4999359A, “Heterocyclic ethylene diamine compounds and their pharmaceutical compositions and methods” (Dr. Lo Zambeletti S.p.A., priority 1988, dated 1991):
Where a name gives a salt, the structure may show the parent alone. Read-outs that look alike come from different tables or passages of the source.

How the values were obtained:
[1] = system: mice (p-phenylquinone-induced abdominal writhing); experiment: P-phenylquinone-induced abdominal writhing test in mice; format: in vivo; details: Mus musculus, sc, p-phenylquinone i.p. 2 mg/Kg after 20 min pretreatment, calculated for the free base, read-out: ANALGESIA WRITHING ED50 (a)
Description: P-phenylquinone-induced abdominal writhing test in mice
The methodology employed is based on that described by Sigmund et al, Proc. Soc. Exptl. Biol. 95, 729/1957, modified by Milne and Twomey, Agents and Actions, 10, 31/1980.
Male Charles River mice (Swiss Strain), 25-36 g body weight, are used. Animals are allowed food and water ad libitum and are randomized into groups of 10 prior to experimentation. Test compounds are dissolved in either distilled water or distilled water plus 0.1M AMS, and administered by the subcutaneous route in a final volume of 10 ml/Kg. Control animals receive 10 ml/Kg of the appropriate vehicle alone. Following a pretreatment period of 20 min., mice are injected intraperitoneally with p-phenylquinone, 2 mg/Kg at 37° C. in a final volume of […]. Next, the mice are placed, in a groups of 3, in a compartmented perspex box maintained at room temperature and are observed for a period of 8 min. During this period the number of abdominal writhing responses per animal are recorded where writhing consists of an intermittent contraction of the abdomen associated with hind leg extension.
The degree of antinociceptive protection afforded by the test compound is determined as the mean number of writhing responses observed in the treated group (T) expressed as a percentage of the mean number of writhing responses in the control group (C) according to the following formula:
[1-(T/C)]×100%=% graded protection.

mice (tail-flick) = experiment: animal or person; format: in vivo; details: Mus musculus, sc, 0.5 h, read-out: ANALGESIA TAIL-FLICK ED50 (a)
μ opioid receptor = μ opioid receptor (Cavia porcellus, UniProt A0ACM8Q262); experiment: Binding to μ sites (3H-DAGO), receptor affinity study; parameters: species or system guinea pig
kappa opioid receptors = biological target: T1, kappa opioid receptors (Cavia porcellus, UniProt P41144); experiment: biochemical; format: binding, guinea pig
T1 construct: fresh guinea pig brain homogenate; from tissue; host or cells: guinea pig whole brain without cerebellum, homogenate

[2] = read-out: OPIATE RECEPTORS BINDING ki MU; guinea pig brain homogenate; 3H-DAGO; 40 min, 25° C.
[3] = read-out: OPIATE RECEPTORS BINDING ki MU

μ opioid receptor, sequence (A0ACM8Q262 1-400): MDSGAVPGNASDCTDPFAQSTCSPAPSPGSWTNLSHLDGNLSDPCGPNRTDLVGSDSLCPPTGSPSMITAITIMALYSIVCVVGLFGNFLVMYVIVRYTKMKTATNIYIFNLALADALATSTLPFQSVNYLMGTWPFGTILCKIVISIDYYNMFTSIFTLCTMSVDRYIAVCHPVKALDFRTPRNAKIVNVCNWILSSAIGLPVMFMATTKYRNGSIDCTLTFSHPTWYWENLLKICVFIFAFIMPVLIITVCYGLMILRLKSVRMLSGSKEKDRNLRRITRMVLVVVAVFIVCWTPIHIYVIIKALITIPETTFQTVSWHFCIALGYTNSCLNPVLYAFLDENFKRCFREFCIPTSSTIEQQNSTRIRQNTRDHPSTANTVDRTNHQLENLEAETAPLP
T1 sequence (P41144 whole entry): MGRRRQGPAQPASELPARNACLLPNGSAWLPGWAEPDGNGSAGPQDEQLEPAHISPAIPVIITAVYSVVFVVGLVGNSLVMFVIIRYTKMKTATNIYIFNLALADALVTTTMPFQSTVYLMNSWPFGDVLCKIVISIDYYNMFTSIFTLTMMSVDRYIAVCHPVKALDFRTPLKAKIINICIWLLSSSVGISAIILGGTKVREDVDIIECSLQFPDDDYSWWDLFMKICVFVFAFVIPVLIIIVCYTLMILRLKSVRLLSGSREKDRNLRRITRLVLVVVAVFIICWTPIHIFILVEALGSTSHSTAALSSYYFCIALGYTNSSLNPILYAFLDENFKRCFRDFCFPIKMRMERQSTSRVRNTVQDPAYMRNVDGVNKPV

| SMILES | ED50 [1] [mg/kg] | ED50 (mice (tail-flick)) [mg/kg] | Ki (μ opioid receptor; [2]) [nM] | Ki (kappa opioid receptors) [nM] | Ki (μ opioid receptor; [3]) [nM] | Ki (μ opioid receptor; guinea pig brain homogenate; 3H-DAGO; 40 min, 25° C.; read-out: OPIATE RECEPTORS BINDING ki MU) [nM] |
| --- | --- | --- | --- | --- | --- | --- |
| O=C(Cc1ccc(Cl)c(Cl)c1)N1CCc2sccc2C1CN1CCCC1 (single isomer, unassigned) [Example 9, (-)-4-(pyrrolidin-1-yl)methyl-5-(3,4-dichlorophenyl)acetyl-4,5,6,7-tetrahydrothieno[3,2-c]pyridine D(-) tartrate hemihydrate] | 0.003 | 0.007 | 47.2 | 1.07 |  |  |
| O=C(Cc1ccc(Cl)c(Cl)c1)N1CCc2sccc2C1CN1CCCCC1 (single isomer, unassigned) [Example 10, (-)-4-(piperidin-1-yl)methyl-5-(3,4-dichlorophenyl)acetyl-4,5,6,7-tetrahydrothieno[3,2-c]pyridine L(+) tartrate hemihydrate] | 0.01 | 0.041 |  |  | 500 |  |
| O=C(Cc1ccc(C(F)(F)F)cc1)N1CCc2sccc2C1CN1CCCCC1 (single isomer, unassigned) [Example 13, (-)-4-(piperidin-1-yl)methyl-5-(4-trifluoromethylphenyl)acetyl-4,5,6,7-tetrahydrothieno[3,2-c]pyridine L(+) tartrate monohydrate] | 0.01 | 0.054 | 468 |  |  |  |
| CC(C1c2ccsc2CCN1C(=O)Cc1ccc(Cl)c(Cl)c1)N(C)C.Cl (single isomer, unassigned) [Example 18, 4-[1-(dimethylamino)ethyl]-5-(3,4-dichlorophenyl)acetyl-4,5,6,7-tetrahydrothieno[3,2-c]pyridine hydrochloride] | 0.204 | 0.824 |  |  |  |  |
| Cl.O.O=C(Cc1ccc(Cl)c(Cl)c1)N1CCc2sccc2C1CN1CCCC1 (stereo not shown) [Example 3, 4-(pyrrolidin-1-yl)methyl-5-(3,4-dichlorophenyl)acetyl-4,5,6,7-tetrahydrothieno[3,2-c]pyridine hydrochloride monohydrate] | 0.004 | 0.019 | 85 | 1.19 |  |  |
| Cl.O=C(Cc1ccc(C(F)(F)F)cc1)N1CCc2sccc2C1CN1CCCC1 (stereo not shown) [Example 4, 4-(pyrrolidin-1-yl)methyl-5-(4-trifluoromethylphenyl)acetyl-4,5,6,7-tetrahydrothieno[3,2-c]pyridine hydrochloride] | 0.004 | 0.018 | 39.2 | 1.78 |  |  |
| Cl.O=C(Cc1ccc(Cl)c(Cl)c1)N1CCc2sccc2C1CN1CCCCC1 (stereo not shown) [Example 5, 4-(piperidin-1-yl)methyl-5-(3,4-dichlorophenyl)acetyl-4,5,6,7-tetrahydrothieno[3,2-c]pyridine hydrochloride] | 0.022 | 0.09 | 781 | 1.29 |  |  |
| CN(C)CC1c2ccsc2CCN1C(=O)Cc1ccc(Cl)c(Cl)c1.Cl (stereo not shown) [Example 6, 4-dimethylaminomethyl-5-(3,4-dichlorophenyl)acetyl-4,5,6,7-tetrahydrothieno[3,2-c]pyridine hydrochloride] |  | 0.042 | 607 | 1.75 |  |  |
| CN(C)CC1c2ccsc2CCN1C(=O)Cc1ccc(C(F)(F)F)cc1 (stereo not shown) [Example 7, 4-dimethylaminomethyl-5-(4-trifluoromethylphenyl)acetyl-4,5,6,7-tetrahydrothieno[3,2-c]pyridine 1.5 hydrochloride 1/3 hydrate] |  | 0.093 |  | 3.46 | 513 |  |
| O=C(Cc1ccc(C(F)(F)F)cc1)N1CCc2sccc2C1CN1CCCCC1 (stereo not shown) [Example 12, 4-(piperidin-1-yl)methyl-5-(4-trifluoromethylphenyl)acetyl-4,5,6,7-tetrahydrothieno[3,2-c]pyridine] | 0.034 | 0.09 | 793 |  |  |  |
| O=C(Cc1ccc(Cl)c(Cl)c1)N1CCc2[nH]c3ccccc3c2C1CN1CCCC1 (stereo not shown) [Example 15, 1-(pyrrolidin-1-yl)methyl-2-(3,4-dichlorophenyl)acetyl-1,2,3,4-tetrahydro-5H-pyrido[4,3-b]indole hydrochloride hemihydrate] | > 10 | > 10 |  |  |  |  |
| O=C(Cc1ccc(Cl)c(Cl)c1)N1CCc2[nH]c3ccccc3c2C1CN1CCCCC1 (stereo not shown) [Example 16, 1-(piperidin-1-yl)methyl-2-(3,4-dichlorophenyl)acetyl-1,2,3,4-tetrahydro-5H-pyrido[4,3-b]indole] | > 10 | > 10 |  |  |  |  |
| O=C(Cc1ccc2c(c1)CCCC2)N1CCc2sccc2C1CN1CCCCC1 (stereo not shown) [Example 19, 4-(piperidin-1-yl)methyl-5-(5,6,7,8-tetrahydronapht-2-yl) acetyl-4,5,6,7-tetrahydrothieno[3,2-c]pyridine hydrochloride hemihydrate] | 0.092 | 0.22 |  |  |  |  |
| O=C(Cc1ccc2c(c1)CCC2)N1CCc2sccc2C1CN1CCCCC1 (stereo not shown) [Example 20, 4-(piperidin-1-yl)methyl-5-(indan-5-yl)acetyl-4,5,6,7-tetrahydrothieno[3,2-c]pyridine hydrochloride 1/3 hydrate] | 0.092 | 0.412 |  |  |  |  |
| O=C(Cc1ccc2c(c1)CCCC2)N1CCc2sccc2C1CN1CCCC1 (stereo not shown) [Example 21, 4-(pyrrolidin-1-yl)methyl-5-(5,6,7,8-tetrahydronapht-2-yl) acetyl-4,5,6,7-tetrahydrothieno[3,2-c]pyridine hydrochloride] | 0.022 | 0.236 | 56 |  |  |  |
| Cl.O=C(Cc1ccc2c(c1)CCC2)N1CCc2sccc2C1CN1CCCC1 (stereo not shown) [Example 22, 4-(pyrrolidin-1-yl)methyl-5-(indan-5-yl)acetyl-4,5,6,7-tetrahydrothieno[3,2-c]pyridine hydrochloride] | 0.014 | 0.146 | 104 |  |  |  |
| O=C(Cc1ccc(Cl)c(Cl)c1)N1CCc2[nH]cnc2C1CN1CCCC1 (stereo not shown) [Example 23, 4-(pyrrolidin-1-yl)methyl-5-(3,4-dichlorophenyl)acetyl-4,5,6,7-tetrahydroimidazo[4,5-c]pyridine] |  | > 50 |  |  |  | > 1000 |
